# From patent publication US9655862B2, “Ocular nanoformulation and method of use in angiogenesis-mediated disorders” (priority 2013, dated 2017)
# “Also recorded” adds a separate entry of the source.
# B1: ranibizumab (antibody, chains of the INN, looked up, V domains shown)
# VH: EVQLVESGGGLVQPGGSLRLSCAASGYDFTHYGMNWVRQAPGKGLEWVGWINTYTGEPTYAADFKRRFTFSLDTSKSTAYLQMNSLRAEDTAVYYCAKYPYYYGTSHWYFDVWGQGTLVTVSS
# VL: DIQLTQSPSSLSASVGDRVTITCSASQDISNYLNWYQQKPGKAPKVLIYFTSSLHSGVPSRFSGSGSGTDFTLTISSLQPEDFATYYCQQYSTVPWTFGQGTKVEIK
# modifications: Fab
# notes: anti-VEGF pharmacotherapy (Lucentis, Genentech)
# Tests used:
# [1] = test system: Neovascularization-mediated by VEGF+FGF2; test: Chick chorioallantoic membrane (CAM) model of angiogenesis; type: in vivo; settings: VEGF and FGF2 at 1 μg/ml each, SNACH 2 ug/CAM, 3-day incubation
# Procedure: The effect of SNACH on Neovascularization-mediated by VEGF+FGF2 was examined in the CAM model. Briefly, ten-day old chick embryos were purchased from Spafas, Inc. (Preston, Conn.) and incubated at 37° C. with 55% relative humidity. A hypodermic needle was used to make a small hole in the shell at the air sac and a second hole will be made on the broadside of the egg, directly over an avascular portion of the embryonic membrane that will be identified by candling. A false air sac was created beneath the second hole by the application of negative pressure at the first hole, causing the CAM to separate from the shell. A window, approximately 1.0 cm^2, was cut in the shell over the dropped CAM with a small crafts grinding wheel (Dremel, Division of Emerson Electric Co., Racine, Wis.), allowing direct access to the underlying CAM. […] Digital images of CAM sections exposed to filters were collected, using a 3-CCD color video camera system (Toshiba America, New York, N.Y.), and analyzed with Image-Pro software (Media Cybernetics, Silver Spring, Md.). The numbers of vessel branch points contained in a circular region equal to the area of each filter disk were counted. One image were counted in each CAM preparation, and findings from 6-8 CAM preparations/group were analyzed for each treatment condition.
# [2] = test system: retinal neovascularization; test: Oxygen-induced retinopathy mouse model (retinopathy of prematurity), retinal neovascularization; type: in vivo
# Procedure: SNACH and SNACH Nanoparticles (1 mg/kg) in PBS at pH 7-7.5, Control: PBS at 1 mg/ml on postnatal day 12 and 15, Mode of Administration: Intraperitoneal or eye drops.
# An animal model of a mice model was used. The mice model used was the Oxygen-induced retinopathy mouse model as described by Smith L E, W. E., McLellan A, Kostyk S K, D'Amato R, Sullivan R, D'Amore P A. (1994), “Oxygen-induced retinopathy in the mouse”, Invest Ophthalmol Vis Sci 35(1): 101-111.
# The neonatal mice were exposed to hyperoxic conditions for 5 days, beginning at age p7 for the pups and continuing through p12 when they are returned to normal oxygen atmosphere (8-10 animals/group). Treatment group SNACH at 1 mg/kg administered IP or eye drops at two separate doses one at P12 and the other at P15. Day 17 animals were scarified and eyes removed for retinal Neovascularization evaluation. The removed eyes were stained with H&E stain. Additionally in upcoming study 3 additional animals per group were used for ocular tissue levels of SNACH after SNACH administration by LC/MS/MS.
# Induction of oxygen-induced retinopathy in mouse model, in accordance with embodiments of the present invention. […]
# [3] = test system: neovascularization secondary to ROP; settings: intravitreal injection; cited from earlier work
# [4] = test system: choroidal neovascular membranes; settings: wet AMD, Phase 3 clinical trials; cited from earlier work
molecule,measurement,setting,value
sulfated non-anticoagulant heparin [SNACH],inhibition of angiogenesis induced by VEGF and FGF2,[1],maximal inhibition of angiogenesis; also recorded: potent angiogenesis inhibitors
same,neovascular regression in ROP mice model,[2]; ROP mice,causes neovascular regression
same,inhibition of retinal neovascularization (mean total area of neovascularization),"[2]; neonatal mouse, 1.0 mg/kg, IP on day 12 and 15",60-70%
bevacizumab,regression of neovascularization secondary to ROP,[3],regression of neovascularization
B1,regression of choroidal neovascular membranes,[4],regression of choroidal neovascular membranes
